EC50 data for 54 molecules are collected here from US20250228835A1, “PYRIDINYLOXYPYRIDINES AND RELATED COMPOUNDS AND THEIR USE IN TREATING MEDICAL CONDITIONS” (Rectify Pharmaceuticals, Inc., priority 2024, published 2025).

This experiment deals with T1, ABCD2 WT (Homo sapiens, UniProt Q9UBJ2).
T1 construct: expressed in transfected cells
T1 sequence (Q9UBJ2 1-740): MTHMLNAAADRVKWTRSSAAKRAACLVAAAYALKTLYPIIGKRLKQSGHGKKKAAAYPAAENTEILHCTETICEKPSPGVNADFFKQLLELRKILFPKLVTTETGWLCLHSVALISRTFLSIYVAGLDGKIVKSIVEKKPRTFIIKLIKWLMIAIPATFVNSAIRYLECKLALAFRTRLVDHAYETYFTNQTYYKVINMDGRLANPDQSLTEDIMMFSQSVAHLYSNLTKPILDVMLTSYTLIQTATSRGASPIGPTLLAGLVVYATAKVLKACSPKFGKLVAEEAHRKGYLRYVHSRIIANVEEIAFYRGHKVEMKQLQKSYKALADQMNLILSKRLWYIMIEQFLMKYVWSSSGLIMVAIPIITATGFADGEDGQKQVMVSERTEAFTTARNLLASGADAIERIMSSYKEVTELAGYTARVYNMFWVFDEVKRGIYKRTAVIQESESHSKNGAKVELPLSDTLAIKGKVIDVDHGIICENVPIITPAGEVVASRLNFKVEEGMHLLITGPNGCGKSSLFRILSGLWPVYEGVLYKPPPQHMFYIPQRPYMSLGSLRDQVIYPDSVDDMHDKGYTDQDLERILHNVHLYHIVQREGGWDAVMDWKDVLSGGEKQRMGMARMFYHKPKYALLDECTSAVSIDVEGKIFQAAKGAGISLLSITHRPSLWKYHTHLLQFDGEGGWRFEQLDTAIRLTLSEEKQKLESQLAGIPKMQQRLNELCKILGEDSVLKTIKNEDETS
The experiment is described as follows: D2 correction dose-response assay: ABCD2 WT HiBit protein expression. Format: cell-based. The settings on record: HEK-293/ABCD2 WT cells, 24 hours treatment, HiBit luminescence; class combines EC50 and Mean MaxAct (fold); read-out: ABCD2 WT EC50, Emax. A digest of the protocol: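 HEK-293 cells stably expressing HiBit-tagged human ABCD2 WT were treated with 11 doses (3-fold dilutions, top final 30 μM, 0.3% DMSO) for 24 h at 37 °C. Expression was measured by HiBit lytic luminescence after 1 h at 25 °C, giving EC50 and Emax.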

The EC50 is the concentration that produces a half-maximal response. Regarding `Cc1cc(C)c(Oc2nc(-c3cncc(Cl)c3)ccc2S(=O)(=O)NC(c2ccccn2)C(F)(F)F)c(C)c1` (single isomer, unassigned) [Compound I-79], the concentration giving a half-maximal response (EC50) is 1 to 10 µM.

In the case of `Cc1cc(C)c(Oc2nc(-c3cncc(Cl)c3)ccc2S(=O)(=O)NC(c2ccccn2)C(F)(F)F)c(C)c1` (single isomer, unassigned) [Compound I-80], the EC50 lay in the range of 1 to 10 µM.

For `Cc1cc(C)c(Oc2nc(-c3cncc(C(N)=O)c3)ccc2NS(C)(=O)=O)c(C2CC2)n1` [Compound I-1], the EC50 was 1 to 10 µM.

For `Cc1cc(C)c(Oc2nc(-c3cn[nH]c3)ccc2NS(C)(=O)=O)c(C2CC2)c1` [Compound I-2], the EC50 was 10 to 25 µM.

With `Cc1ccc(Oc2nc(-c3cncc(C#N)c3)ccc2NS(C)(=O)=O)c(C)n1` [Compound I-3], the concentration giving a half-maximal response (EC50) fell in the range of 1 to 10 µM.

As to `Cc1cc(C)c(Oc2nc(-c3cncc(Cl)c3)ccc2N(C2CC2)S(C)(=O)=O)c(C)c1` [Compound I-42], the EC50 is 1 to 10 µM.

Turning to `Cc1cc(C)c(Oc2nc(N3CC4(C3)CN(S(=O)(=O)C3CC3)C4)ccc2NS(C)(=O)=O)c(C)c1` [Compound I-43], the concentration giving a half-maximal response (EC50) is > 25 µM.

Consider `Cc1cc(C)c(Oc2nc(N3CCN(S(=O)(=O)C4CC4)CC3)ccc2NS(C)(=O)=O)c(C)c1` [Compound I-44], for which the concentration giving a half-maximal response (EC50) was in the range of 10 to 25 µM.

Take `Cc1cc(C)c(Oc2nc(-c3ccc(C#N)nc3)ccc2NS(C)(=O)=O)c(C)c1` [Compound I-45]: the EC50 was < 1 µM.

In the case of `Cc1cc(C)c(Oc2nc(-c3cncc(Cl)c3)ccc2NS(C)(=O)=O)c(C)n1` [Compound I-46], the EC50 is < 1 µM.

In the case of `Cc1cc(C)c(Oc2nc(N3CCN(C(=O)C4CC4)CC3)ccc2NS(C)(=O)=O)c(C)c1` [Compound I-47], the 50% effective concentration (EC50) lay in the range of 1 to 10 µM.

Consider `Cc1cc(C)c(Oc2nc(-c3cncc(Cl)c3)ccc2N(C)S(C)(=O)=O)c(C)c1` [Compound I-48], for which the EC50 is < 1 µM.

As to `Cc1cc(C)c(Oc2nc(-c3cncc(Cl)c3)ccc2NS(=O)(=O)C2CC2)c(C)c1` [Compound I-49], the 50% effective concentration (EC50) was > 25 µM.

As for `CC(=O)NC1CN(c2ccc(NS(=O)(=O)c3cccnc3)c(Oc3c(C)cc(C)cc3C3CC3)n2)C1` [Compound I-50], the EC50 was > 25 µM.

For the molecule `COC1CC(S(=O)(=O)Nc2ccc(-c3cncc(Cl)c3)nc2Oc2c(C)cc(C)cc2C)C1` (stereo not drawn) [Compound I-51], the concentration for a half-maximal effect (EC50) is > 25 µM.

With `Cc1cc(C)c(Oc2nc(-c3cncc(Cl)c3)ccc2N(C)S(=O)(=O)c2cnn(C)c2)c(C2CC2)c1` [Compound I-52], the concentration for a half-maximal effect (EC50) is < 1 µM.

`Cc1cc(C)c(Oc2nc(-c3cncc(Cl)c3)ccc2N(C)S(=O)(=O)c2cccnc2)c(C2CC2)c1` [Compound I-53]: the concentration giving a half-maximal response (EC50) is > 25 µM.

On to `Cc1cc(C)c(Oc2nc(-c3cncc(Cl)c3)ccc2NS(=O)(=O)c2cccnc2)c(C2CC2)c1` [Compound I-54], for which the EC50 was 1 to 10 µM.

Take `Cc1cc(C)c(Oc2nc(-c3cncc(Cl)c3)ccc2NS(C)(=O)=O)c(C)c1` [Compound I-55]: the 50% effective concentration (EC50) is < 1 µM.

On to `Cc1cc(C)c(Oc2cc(-c3cncc(Cl)c3)ncc2NS(C)(=O)=O)c(C)c1` [Compound I-56], for which the 50% effective concentration (EC50) lay in the range of 1 to 10 µM.

Turning to `Cc1cc(C)c(Oc2nc(-c3cncc(Cl)c3)ccc2NS(C)(=O)=O)c(C2CC2)c1` [Compound I-57], the concentration giving a half-maximal response (EC50) was < 1 µM.

`Cc1cc(C)c(Oc2nc(-c3cncc(Cl)c3)ccc2NS(=O)(=O)c2cnn(C)c2)c(C2CC2)c1` [Compound I-58]: the 50% effective concentration (EC50) is > 25 µM.

On to `Cc1cc(C)c(Oc2cc(-c3cncc(Cl)c3)cnc2N(C)S(=O)(=O)c2cnn(C)c2)c(C)c1` [Compound I-59], for which the EC50 was 1 to 10 µM.

For the molecule `Cc1cc(C)c(Oc2cc(-c3cncc(Cl)c3)cnc2NS(C)(=O)=O)c(C)c1` [Compound I-60], the EC50 fell in the range of 1 to 10 µM.

`Cc1cc(C)c(Oc2cc(-c3cncc(Cl)c3)cnc2NS(=O)(=O)c2cnn(C)c2)c(C)c1` [Compound I-61]: the EC50 lay in the range of 1 to 10 µM.

Regarding `Cc1cc(C)c(Oc2nc(-c3cncc(Cl)c3)ccc2NS(=O)(=O)Cc2ccccn2)c(C)c1` [Compound I-62], the EC50 was < 1 µM.

Turning to `COc1ccc2nc[nH]c2c1S(=O)(=O)Nc1ccc(-c2cncc(Cl)c2)nc1Oc1c(C)cc(C)cc1C` [Compound I-63], the concentration giving a half-maximal response (EC50) is > 25 µM.

With `Cc1cc(C)c(Oc2nc(-c3cncc(Cl)c3)ccc2N(C)S(=O)(=O)Cc2ccccc2)c(C)c1` [Compound I-64], the EC50 lay within 1 to 10 µM.

With `Cc1cc(C)c(Oc2nc(-c3cncc(Cl)c3)ccc2NS(=O)(=O)Cc2ccccc2)c(C)c1` [Compound I-65], the concentration for a half-maximal effect (EC50) is > 25 µM.

Turning to `Cc1cc(C)c(Oc2nc(-c3cncc(Cl)c3)ccc2N2CCCCS2(=O)=O)c(C)c1` [Compound I-66], the half-maximal effective concentration (EC50) fell in the range of 10 to 25 µM.

Consider `Cc1cc(C)c(Oc2nc(-c3cncc(Cl)c3)ccc2N2CCCS2(=O)=O)c(C)c1` [Compound I-67], for which the EC50 is 1 to 10 µM.

Consider `Cc1cc(C)c(Oc2nc(-c3cncc(Cl)c3)ccc2NS(=O)(=O)C(C)(C)C)c(C)c1` [Compound I-68], for which the EC50 is > 25 µM.

Take `Cc1cc(C)c(Oc2nc(-c3cncc(Cl)c3)ccc2N(C)S(=O)(=O)c2cccnc2)c(C)c1` [Compound I-69]: the half-maximal effective concentration (EC50) is > 25 µM.

Turning to `Cc1cc(C)c(Oc2nc(-c3cncc(Cl)c3)ccc2N(C)S(=O)(=O)c2cnn(C)c2)c(C)c1` [Compound I-70], the concentration giving a half-maximal response (EC50) is < 1 µM.

As to `Cc1cc(C)c(Oc2nc(-c3cncc(Cl)c3)ccc2NS(=O)(=O)c2cccnc2)c(C)c1` [Compound I-71], the half-maximal effective concentration (EC50) is < 25 µM.

`Cc1cc(C)c(Oc2nc(-c3cncc(Cl)c3)ccc2NS(=O)(=O)c2cnn(C)c2)c(C)c1` [Compound I-72]: the concentration giving a half-maximal response (EC50) was < 1 µM.

In the case of `CNS(=O)(=O)c1ccc(N2CCN(C(=O)C3CC3)CC2)nc1Oc1c(C)cc(C)cc1C` [Compound I-73], the concentration giving a half-maximal response (EC50) was in the range of 1 to 10 µM.

Take `COC1CC(NS(=O)(=O)c2ccc(-c3cncc(Cl)c3)nc2Oc2c(C)cc(C)cc2C2CC2)C1` (stereo not drawn) [Compound I-74]: the half-maximal effective concentration (EC50) was < 25 µM.

Take `Cc1cc(C)c(Oc2nc(-c3cncc(Cl)c3)ccc2S(=O)(=O)Nc2cnn(C)c2)c(C2CC2)c1` [Compound I-75]: the EC50 is < 25 µM.

Turning to `Cc1cc(C)c(Oc2nc(-c3cncc(Cl)c3)ccc2S(=O)(=O)NCc2ccccn2)c(C2CC2)c1` [Compound I-76], the EC50 lay within 1 to 10 µM.

With `CNS(=O)(=O)c1ccc(-c2cncc(Cl)c2)nc1Oc1c(C)cc(C)cc1C1CC1` [Compound I-77], the EC50 is < 1 µM.

Turning to `COC1CC(NS(=O)(=O)c2ccc(-c3cncc(Cl)c3)nc2Oc2c(C)cc(C)cc2C)C1` (stereo not drawn) [Compound I-78], the EC50 lay in the range of 1 to 10 µM.

Consider `Cc1cc(C)c(Oc2nc(-c3cncc(Cl)c3)ccc2S(=O)(=O)N[C@H](c2ccccc2)C(F)(F)F)c(C)c1` [Compound I-81], for which the half-maximal effective concentration (EC50) was in the range of 1 to 10 µM.

`Cc1cc(C)c(Oc2nc(-c3cncc(Cl)c3)ccc2S(=O)(=O)N[C@@H](c2ccccc2)C(F)(F)F)c(C)c1` [Compound I-83]: the EC50 was in the range of 1 to 10 µM.

Consider `CNS(=O)(=O)c1cnc(-c2cncc(Cl)c2)cc1Oc1c(C)cc(C)cc1C` [Compound I-84], for which the EC50 was in the range of 10 to 25 µM.

For the molecule `Cc1cc(C)c(Oc2nc(-c3cncc(Cl)c3)ccc2S(=O)(=O)N(C)Cc2ccccc2)c(C)c1` [Compound I-85], the EC50 lay in the range of 1 to 10 µM.

Turning to `Cc1cc(C)c(Oc2nc(-c3cncc(Cl)c3)ccc2S(=O)(=O)NCc2ccccn2)c(C)c1` [Compound I-86], the EC50 is 1 to 10 µM.

`Cc1cc(C)c(Oc2nc(-c3cncc(Cl)c3)ccc2S(=O)(=O)NCc2cc(C(F)(F)F)ccn2)c(C)c1` [Compound I-87]: the EC50 is > 25 µM.

`Cc1cc(C)c(Oc2nc(-c3cncc(Cl)c3)ccc2S(=O)(=O)NCc2ccccc2)c(C)c1` [Compound I-88]: the concentration for a half-maximal effect (EC50) lay within 1 to 10 µM.

In the case of `CNS(=O)(=O)c1ncc(-c2cncc(Cl)c2)nc1Oc1c(C)cc(C)c(Cl)c1C` [Compound I-89], the EC50 was in the range of 1 to 10 µM.

`Cc1cc(C)c(Oc2nc(-c3cncc(Cl)c3)cnc2S(N)(=O)=O)c(C)c1Cl` [Compound I-90]: the 50% effective concentration (EC50) fell in the range of 1 to 10 µM.

Regarding `CNS(=O)(=O)c1ccc(N2CCN(C)C(=O)C2)nc1Oc1c(C)cc(C)cc1C` [Compound I-92], the 50% effective concentration (EC50) is > 25 µM.

As to `Cc1cc(C)c(Oc2nc(-c3cncc(Cl)c3)ncc2S(N)(=O)=O)c(C)c1Cl` [Compound I-93], the concentration for a half-maximal effect (EC50) was in the range of 1 to 10 µM.

`Cc1cc(C)c(Oc2nc(-c3cncc(Cl)c3)ccc2S(=O)(=O)Nc2cnn(C)c2)c(C)c1` [Compound I-94]: the 50% effective concentration (EC50) lay in the range of 1 to 10 µM.
